We go through six compounds from patent US20190062709A1, “METHODS AND COMPOSITIONS FOR MAINTENANCE OF HEMATOPOIETIC STEM CELLS WITH PRESERVATION OF SELF-RENEWAL CAPACITY” (The Trustees of Columbia University in the City of New York, priority 2017, published 2019).

SMILES strings stand for the structures. Where two headings read alike, the source gives them in different places.

Assay [1] deals with HSCs. The assay can be described thus: Calcium concentration of HSCs treated with metabolic inhibitors. Type of assay: cell-based, mouse.
For assay [2] the following is noted: 37° C., assumed based on previous studies; read-out: Indo-1 dissociation constant (Kd); cited from earlier work.
In assay [3] the test system is HSCs. The assay can be described thus: Competitive transplantation of cultured HSCs into irradiated recipient mice (donor chimerism). It counts as in vivo, mouse. To be noted: 10% of culture transplanted. The protocol:
Long term LT-HSCs cultures were carried out using Ca^2+-free DMEM (U.S. Biologicals) reconstituted with 4.5 g/L glucose and 1.1 g/L sodium bicarbonate at pH 7.4. Complete media was prepared with Ca^2+-free DMEM supplemented with 1× StemPro34 SFM (Invitrogen), 10 mM HEPES, 200 ng/mL of recombinant m-SCF and 30 ng/mL m-TPO (Peptrotech, Rocky Hill, N.J.). Media of various calcium concentrations was prepared as serial dilutions from stock complete media at 2 mM. Cultures were initiated with 3000-4000 purified HSCs (LSK+CD48−F1t3−CD150+) and cultured in round bottom 96 well plates with 150 uL of media in 5% O2 at 37° C. Half of the media volume was changed every 3 days and split 1:2 every 7 days. Cultures were counted at the time of phenotypic flow cytometric percentage analysis to determine phenotypic HSC counts at the end of culture. Based on calculations, HSC yields were expressed as phenotypic HSC at the end of culture divided by phenotypic HSC count at the start of culture.
All transplant experiments were initiated with LT-HSC cultures consisting of CD45.1 donor HSCs. […]
To test HSC function, irradiated recipient mice were competitively transplanted with 10% of the cultures, either at initiation or after 2 weeks of culture, and analyzed 15 weeks after transplantation. […] Donor contribution correlated with calculated phenotypic HSC cell dose transplanted (FIG. 2D). […]

Another assay concerns the target T1, murine AHR (Mus musculus, UniProt P30561).
T1 sequence (P30561 10-848): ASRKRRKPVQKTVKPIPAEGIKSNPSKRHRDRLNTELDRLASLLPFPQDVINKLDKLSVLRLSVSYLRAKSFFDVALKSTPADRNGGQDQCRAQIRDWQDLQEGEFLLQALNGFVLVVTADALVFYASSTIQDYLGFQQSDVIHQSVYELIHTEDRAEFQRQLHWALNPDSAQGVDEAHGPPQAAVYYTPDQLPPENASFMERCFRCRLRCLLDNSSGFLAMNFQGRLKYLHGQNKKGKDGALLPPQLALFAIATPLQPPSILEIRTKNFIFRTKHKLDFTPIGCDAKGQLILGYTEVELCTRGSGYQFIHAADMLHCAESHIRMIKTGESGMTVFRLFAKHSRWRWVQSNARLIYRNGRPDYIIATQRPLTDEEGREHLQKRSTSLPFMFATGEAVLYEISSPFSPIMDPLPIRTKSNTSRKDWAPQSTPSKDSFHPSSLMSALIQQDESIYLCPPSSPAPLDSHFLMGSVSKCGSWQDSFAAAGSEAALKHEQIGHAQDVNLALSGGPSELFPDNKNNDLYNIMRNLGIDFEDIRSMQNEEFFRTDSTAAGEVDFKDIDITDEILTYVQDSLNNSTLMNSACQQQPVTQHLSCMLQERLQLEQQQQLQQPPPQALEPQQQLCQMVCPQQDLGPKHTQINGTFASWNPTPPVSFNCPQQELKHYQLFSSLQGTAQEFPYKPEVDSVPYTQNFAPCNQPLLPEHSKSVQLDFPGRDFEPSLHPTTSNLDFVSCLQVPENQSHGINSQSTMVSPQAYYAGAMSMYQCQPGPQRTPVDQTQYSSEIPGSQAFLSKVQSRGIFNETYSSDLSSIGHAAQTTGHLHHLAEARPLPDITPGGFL
To be noted: literature report; cited from earlier work.

A further assay deals with murine HSCs. To be noted: literature report; cited from earlier work.
The test system of assay [4] is human progenitor/stem cells. The settings on record: literature report; cited from earlier work.
[5] abbreviates: purified HSCs treated 15 min, compared to DMSO control.

As to `N#CC(C#N)=NNc1ccc(OC(F)(F)F)cc1` [FCCP], the “Cai^2+ of HSCs at higher doses” value in the assay on HSCs [1] (higher doses of the mitochondrial inhibitors, 15 min) is “further reduction”. Also, the “Cai^2+ of HSCs” value in the assay with HSCs [1] (setting [5]) is on record as “not inhibition of mitochondrial respiration increased”.

Consider `Cc1ccc(N(CC(=O)O)CC(=O)O)c(OCCOc2cc(-c3cc4ccc(C(=O)O)cc4[nH]3)ccc2N(CC(=O)O)CC(=O)O)c1` [Indo-1], for which, in assay [2], the Kd is 237 nM.

Regarding `O=C(O)/C(S)=C/c1ccc(I)cc1` [PD150606, (Z)-3-(4-Iodophenyl)-2-mercapto-2-propenoic acid], the competitive repopulation capacity entry in the assay on HSCs [3] (PD150606 25 μM added to high calcium (2.0 mM) 2-week HSC cultures) is recorded as “increased competitive repopulation capacity”; in the assay on HSCs [3] (PD150606 25 μM added to low calcium (0.02 mM) 2-week HSC cultures), “no effect”.

On to `CC(C)n1cnc2c(NCCc3ccc(O)cc3)nc(-c3csc4ccccc34)nc21` [SR1, stemregenin 1], for which the “inhibition of murine AHR” value at murine AHR is reported as “does not inhibit”. For the same compound, the “expansion of murine HSCs” value in the assay on murine HSCs was “does not lead to expansion”. In addition, the “expansion of human progenitor/stem cells capable of repopulating irradiated immunodeficient mice” value in assay [4] is reported as “led to expansion”.

For `O=C(O)CI` [iodoacetic acid], the “Cai^2+ of HSCs” value in the assay on HSCs [1] is reported as “increased”.

Consider `CC[C@H]1/C=C/C=C/C[C@@H](C)[C@H](O)[C@@](C)(O)C(=O)[C@@H](C)[C@H](O)[C@@H](C)C(=O)[C@@H](C)[C@H](O)[C@@H](C)/C=C/C(=O)O[C@@H]2[C@H](C)[C@H](CC1)O[C@]1(CC[C@H](C)[C@H](C[C@@H](C)O)O1)[C@H]2C` [oligomycin], for which, in the assay on HSCs [1] (setting [5]), the “Cai^2+ of HSCs” value was “not inhibition of mitochondrial respiration increased”.
